Reference: patent publication US20260132140A1, “IMIDAZOLYL-AMINO-PYRAZINE-CARBONITRILS AS CHK-1 INHIBITORS” (BenevolentAI Bio Limited, priority 2022, published 2026)

What was measured:
[1] = target: human Chk2 kinase (Homo sapiens, UniProt O96017); assay: biochemical
[2] = target: T1, human Chk1 kinase (Homo sapiens, UniProt O14757); assay: biochemical
T1 sequence (O14757 1-476): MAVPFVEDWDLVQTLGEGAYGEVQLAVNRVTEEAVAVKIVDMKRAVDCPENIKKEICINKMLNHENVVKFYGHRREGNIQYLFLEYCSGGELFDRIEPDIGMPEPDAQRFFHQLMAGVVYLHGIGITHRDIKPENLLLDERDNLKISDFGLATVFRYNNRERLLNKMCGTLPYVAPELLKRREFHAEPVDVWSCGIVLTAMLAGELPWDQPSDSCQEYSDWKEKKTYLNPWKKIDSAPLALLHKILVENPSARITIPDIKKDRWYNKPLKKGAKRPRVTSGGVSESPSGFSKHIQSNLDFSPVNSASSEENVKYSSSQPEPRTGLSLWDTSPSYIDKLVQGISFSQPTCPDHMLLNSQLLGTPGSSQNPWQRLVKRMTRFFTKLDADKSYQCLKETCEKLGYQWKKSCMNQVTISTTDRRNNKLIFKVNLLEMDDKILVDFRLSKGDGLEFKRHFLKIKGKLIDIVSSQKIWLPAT

Chain of human Chk2 kinase (O96017 whole entry): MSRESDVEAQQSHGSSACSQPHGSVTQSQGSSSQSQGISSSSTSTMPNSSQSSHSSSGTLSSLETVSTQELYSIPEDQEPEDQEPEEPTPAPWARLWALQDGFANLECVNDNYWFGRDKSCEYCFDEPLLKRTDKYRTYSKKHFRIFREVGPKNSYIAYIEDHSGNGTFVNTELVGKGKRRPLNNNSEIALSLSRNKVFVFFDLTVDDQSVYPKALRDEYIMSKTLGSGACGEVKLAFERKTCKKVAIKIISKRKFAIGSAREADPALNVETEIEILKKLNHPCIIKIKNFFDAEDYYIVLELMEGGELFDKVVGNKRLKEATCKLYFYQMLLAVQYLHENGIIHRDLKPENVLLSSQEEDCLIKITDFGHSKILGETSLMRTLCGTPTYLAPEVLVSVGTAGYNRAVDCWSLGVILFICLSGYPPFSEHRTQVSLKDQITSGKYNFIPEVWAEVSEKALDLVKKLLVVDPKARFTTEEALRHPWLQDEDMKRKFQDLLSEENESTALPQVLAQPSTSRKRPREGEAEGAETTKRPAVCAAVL

Row | SMILES | IC50 [1] | IC50 [2]
1 | CC1(C)CCN1C1CCN(c2ccc(-n3cnc(Nc4cnc(C#N)cn4)c3)cc2)C1 (single isomer, unassigned) [Example 140, 5-((1-(4-(3-(2,2-Dimethylazetidin-1-yl)pyrrolidin-1-yl)phenyl)-1H-imidazol-4-yl)amino)pyrazine-2-carbonitrile] | 1 to 10 µM | < 0.01 µM
2 | N#Cc1cnc(Nc2cn(-c3cccc(N4CCC(N)C(F)(F)C4)c3)cn2)cn1 (single isomer, unassigned) [Example 166, 5-((1-(3-(4-Amino-3,3-difluoropiperidin-1-yl)phenyl)-1H-imidazol-4-yl)amino)pyrazine-2-carbonitrile] | > 100 µM | 0.0316 to 0.1 µM
3 | N#Cc1cnc(Nc2cn(-c3ccc(CN4CC[C@@H](F)C4)c(Cl)c3)cn2)cn1 [Example 2, (R)-5-((1-(3-Chloro-4-((3-fluoropyrrolidin-1-yl)methyl)phenyl)-1H-imidazol-4-yl)amino)pyrazine-2-carbonitrile] | > 100 µM | 0.316 to 1 µM
4 | COc1cc(CN2CC[C@@H](F)C2)cc(F)c1-n1cnc(Nc2cnc(C#N)cn2)c1 [Example 5, (R)-5-((1-(2-Fluoro-4-((3-fluoropyrrolidin-1-yl)methyl)-6-methoxyphenyl)-1H-imidazol-4-yl)amino)pyrazine-2-carbonitrile] | > 100 µM | 0.316 to 1 µM
5 | N#Cc1cnc(Nc2cn(-c3ccc(CN4CC[C@@H](F)C4)cc3F)cn2)cn1 [Example 6, (R)-5-((1-(2-Fluoro-4-((3-fluoropyrrolidin-1-yl)methyl)phenyl)-1H-imidazol-4-yl)amino)pyrazine-2-carbonitrile] | > 100 µM | 0.1 to 0.316 µM
6 | CN1CCN(Cc2ccc(-n3cnc(Nc4cnc(C#N)cn4)c3)cc2)CC1 [Example 7, 5-((1-(4-((4-Methylpiperazin-1-yl)methyl)phenyl)-1H-imidazol-4-yl)amino)pyrazine-2-carbonitrile] | > 100 µM | 0.1 to 0.316 µM
7 | CN1C[C@H]2C[C@@H]1CN2c1ccc(-n2cnc(Nc3cnc(C#N)cn3)c2)cc1 [Example 9, 5-((1-(4-((1R,4R)-5-Methyl-2,5-diazabicyclo[2.2.1]heptan-2-yl)phenyl)-1H-imidazol-4-yl)amino)pyrazine-2-carbonitrile] | 10 to 100 µM | 0.01 to 0.0316 µM
8 | CN1C[C@@H]2C[C@H]1CN2c1ccc(-n2cnc(Nc3cnc(C#N)cn3)c2)cc1 [Example 10, 5-((1-(4-((1S,4S)-5-Methyl-2,5-diazabicyclo[2.2.1]heptan-2-yl)phenyl)-1H-imidazol-4-yl)amino)pyrazine-2-carbonitrile] | 10 to 100 µM | 0.01 to 0.0316 µM
9 | COc1cc(NC2CCN(C)CC2)ccc1-n1cnc(Nc2cnc(C#N)cn2)c1 [Example 13, 5-((1-(2-Methoxy-4-((1-methylpiperidin-4-yl)amino)phenyl)-1H-imidazol-4-yl)amino)pyrazine-2-carbonitrile] | 10 to 100 µM | 0.01 to 0.0316 µM
10 | COc1cc(N(C)C2CCN(C)CC2)ccc1-n1cnc(Nc2cnc(C#N)cn2)c1 [Example 14, 5-((1-(2-Methoxy-4-(methyl(1-methylpiperidin-4-yl)amino)phenyl)-1H-imidazol-4-yl)amino)pyrazine-2-carbonitrile] | 10 to 100 µM | 0.01 to 0.0316 µM
11 | C[C@@H]1CN(C)CCN1c1ccc(-n2cnc(Nc3cnc(C#N)cn3)c2)cc1 [Example 16, (R)-5-((1-(4-(2,4-Dimethylpiperazin-1-yl)phenyl)-1H-imidazol-4-yl)amino)pyrazine-2-carbonitrile] | 10 to 100 µM | 0.01 to 0.0316 µM
12 | C[C@H]1CN(C)CCN1c1ccc(-n2cnc(Nc3cnc(C#N)cn3)c2)cc1 [Example 17, (S)-5-((1-(4-(2,4-Dimethylpiperazin-1-yl)phenyl)-1H-imidazol-4-yl)amino)pyrazine-2-carbonitrile] | 10 to 100 µM | 0.0316 to 0.1 µM
13 | CN1CCN(c2ccc(-n3cnc(Nc4cnc(C#N)cn4)c3)nc2)CC1 [Example 18, 5-((1-(5-(4-Methylpiperazin-1-yl)pyridin-2-yl)-1H-imidazol-4-yl)amino)pyrazine-2-carbonitrile] | 1 to 10 µM | 0.01 to 0.0316 µM
14 | CN1CCN(c2ccc(-n3cnc(Nc4cnc(C#N)cn4)c3)cn2)CC1 [Example 19, 5-((1-(6-(4-Methylpiperazin-1-yl)pyridin-3-yl)-1H-imidazol-4-yl)amino)pyrazine-2-carbonitrile] | 10 to 100 µM | 0.1 to 0.316 µM
15 | CN1CCCN(c2ccc(-n3cnc(Nc4cnc(C#N)cn4)c3)cn2)CC1 [Example 20, 5-((1-(6-(4-methyl-1,4-Diazepan-1-yl)pyridin-3-yl)-1H-imidazol-4-yl)amino)pyrazine-2-carbonitrile] | 10 to 100 µM | 0.1 to 0.316 µM
16 | CN1CCN(c2ccc(-n3cnc(Nc4cnc(C#N)cn4)c3)cc2F)CC1 [Example 21, 5-((1-(3-Fluoro-4-(4-methylpiperazin-1-yl)phenyl)-1H-imidazol-4-yl)amino)pyrazine-2-carbonitrile] | 10 to 100 µM | 0.0316 to 0.1 µM

Row | SMILES | IC50 [1] | IC50 [2]
17 | CN1C[C@H](OCc2ccc(-n3cnc(Nc4cnc(C#N)cn4)c3)cc2)[C@@H](F)C1 [Example 24, 5-((1-(4-((((3S,4S)-4-Fluoro-1-methylpyrrolidin-3-yl)oxy)methyl)phenyl)-1H-imidazol-4-yl)amino)pyrazine-2-carbonitrile] | > 100 µM | 0.0316 to 0.1 µM
18 | CN1CCC(Nc2ccc(-n3cnc(Nc4cnc(C#N)cn4)c3)cc2)CC1 [Example 26, 5-((1-(4-((1-Methylpiperidin-4-yl)amino)phenyl)-1H-imidazol-4-yl)amino)pyrazine-2-carbonitrile] | 10 to 100 µM | 0.01 to 0.0316 µM
19 | CCN1CCN(c2ccc(-n3cnc(Nc4cnc(C#N)cn4)c3)c(OC)c2)CC1 [Example 27, 5-((1-(4-(4-Ethylpiperazin-1-yl)-2-methoxyphenyl)-1H-imidazol-4-yl)amino)pyrazine-2-carbonitrile] | 1 to 10 µM | < 0.01 µM
20 | Cc1cc(-n2cnc(Nc3cnc(C#N)cn3)c2)ccc1N1CCN(C)CC1 [Example 28, 5-((1-(3-Methyl-4-(4-methylpiperazin-1-yl)phenyl)-1H-imidazol-4-yl)amino)pyrazine-2-carbonitrile] | 10 to 100 µM | 0.01 to 0.0316 µM
21 | COc1cc(N2CCN3CCC[C@H]3C2)ccc1-n1cnc(Nc2cnc(C#N)cn2)c1 [Example 30, (S)-5-((1-(4-(Hexahydropyrrolo[1,2-a]pyrazin-2(1H)-yl)-2-methoxyphenyl)-1H-imidazol-4-yl)amino)pyrazine-2-carbonitrile] | 10 to 100 µM | < 0.01 µM
22 | COc1cc(N2CCN(C)C[C@@H]2C)ccc1-n1cnc(Nc2cnc(C#N)cn2)c1 [Example 31, (S)-5-((1-(4-(2,4-Dimethylpiperazin-1-yl)-2-methoxyphenyl)-1H-imidazol-4-yl)amino)pyrazine-2-carbonitrile] | 10 to 100 µM | 0.01 to 0.0316 µM
23 | CN(C)C1CN(c2ccc(-n3cnc(Nc4cnc(C#N)cn4)c3)cc2)C1 [Example 32, 5-((1-(4-(3-(Dimethylamino)azetidin-1-yl)phenyl)-1H-imidazol-4-yl)amino)pyrazine-2-carbonitrile] | > 100 µM | < 0.01 µM
24 | CN1CCCN(c2cccc(-n3cnc(Nc4cnc(C#N)cn4)c3)c2)CC1 [Example 33, 5-((1-(3-(4-Methyl-1,4-diazepan-1-yl)phenyl)-1H-imidazol-4-yl)amino)pyrazine-2-carbonitrile] | 10 to 100 µM | 0.0316 to 0.1 µM
25 | CN1CCCC12CN(c1cccc(-n3cnc(Nc4cnc(C#N)cn4)c3)c1)C2 [Example 34, 5-((1-(3-(5-Methyl-2,5-diazaspiro[3.4]octan-2-yl)phenyl)-1H-imidazol-4-yl)amino)pyrazine-2-carbonitrile] | 10 to 100 µM | 0.01 to 0.0316 µM
26 | N#Cc1cnc(Nc2cn(-c3cccc(N4CCN5CCC[C@H]5C4)c3)cn2)cn1 [Example 35, (S)-5-((1-(3-(Hexahydropyrrolo[1,2-a]pyrazin-2(1H)-yl)phenyl)-1H-imidazol-4-yl)amino)pyrazine-2-carbonitrile] | > 100 µM | 0.0316 to 0.1 µM
27 | COc1cc(N(C)CC2CCN(C)CC2)ccc1-n1cnc(Nc2cnc(C#N)cn2)c1 [Example 36, 5-((1-(2-Methoxy-4-(methyl((1-methylpiperidin-4-yl)methyl)amino)phenyl)-1H-imidazol-4-yl)amino)pyrazine-2-carbonitrile] | 10 to 100 µM | 0.0316 to 0.1 µM
28 | CN(C)C1CCN(c2ccc(-n3cnc(Nc4cnc(C#N)cn4)c3)cc2)CC1 [Example 37, 5-((1-(4-(4-(Dimethylamino)piperidin-1-yl)phenyl)-1H-imidazol-4-yl)amino)pyrazine-2-carbonitrile] | 1 to 10 µM | < 0.01 µM
29 | CN(C)[C@@H]1CCN(c2cccc(-n3cnc(Nc4cnc(C#N)cn4)c3)c2)C1 [Example 38, (R)-5-((1-(3-(3-(Dimethylamino)pyrrolidin-1-yl)phenyl)-1H-imidazol-4-yl)amino)pyrazine-2-carbonitrile] | 10 to 100 µM | 0.01 to 0.0316 µM
30 | CN1CCC2(CC1)CCN(c1cccc(-n3cnc(Nc4cnc(C#N)cn4)c3)c1)C2 [Example 39, 5-((1-(3-(8-Methyl-2,8-diazaspiro[4.5]decan-2-yl)phenyl)-1H-imidazol-4-yl)amino)pyrazine-2-carbonitrile] | 10 to 100 µM | 0.01 to 0.0316 µM
31 | CCN1CCC(Nc2ccc(-n3cnc(Nc4cnc(C#N)cn4)c3)c(OC)c2)CC1 [Example 41, 5-((1-(4-((1-Ethylpiperidin-4-yl)amino)-2-methoxyphenyl)-1H-imidazol-4-yl)amino)pyrazine-2-carbonitrile] | 10 to 100 µM | 0.01 to 0.0316 µM
